Assay: Inhibition of CXCL1-induced human neutrophil chemotaxis

IC50 [nM]	Compound
2.4	Cc1ccc([C@@H](C)Nc2c(Nc3cccc(C(=O)N(C)C)c3O)c(=O)c2=O)o1 [(R)-2-hydroxy-N,N-dimethyl-3-(2-(1-(5-methylfuran-2-yl)ethylamino)-3,4-dioxocyclobut-1-enylamino)benzamide]
48	CC[C@@H](Nc1c(Nc2cccc(C(=O)N(C)C)c2O)c(=O)c1=O)c1ccccc1 [(R)-3-(3,4-dioxo-2-(1-phenylpropylamino)cyclobut-1-enylamino)-2-hydroxy-N,N-dimethylbenzamide]

From BindingDB's records for doi:10.1021/jm0609622 (Schering-Plough Research Institute, 2006)
